Laboratory results from US6767738B1, “Method of isolating adult mammalian CNS-derived progenitor stem cells using density gradient centrifugation” (The Salk Institute for Biological Studies, priority 1999, dated 2004).

Experiments:
[1] = system: c-fos mRNA (Trk receptor tyrosine kinase signaling); assay: RT-PCR analysis of neurotrophin-dependent c-fos induction; format: cell-based, rat; settings: pretreatment with RA for 6 days
Experimental: (§1) Cell Culture. For proliferating conditions, clonal stem cells (AP14) were cultured in Dulbecco's Modified Eagles Medium/Ham's F12 (DMEM/F12, 1:1) containing N2 supplement (Gibco BRL, Gaithersburg, Md.) and 20 ng/ml rhFGF-2 (provided by A. Baird, Prizm Pharmaceuticals Inc., La Jolla, Calif.). Culture dishes (Becton Dickinsin Labware, Lincoln Park, N.J.) were coated with polyomithine and mouse laminin as previously described by Ray, et al., Proliferation, differentiation and long-term culture of primary hippocampal neurons, Proc Natl Acad Sci USA 90:3602-3606 (1993). For differentiation experiments, cells were plated into polyornithine/laminin coated glass chamber slides (Nunc, Naperville, Ill.) at a density of 2.5—103 per cm2. The cells were incubated for 24 hrs in normal N2 medium containing 20 ng/ml FGF-2, and then the medium was replaced by N2 medium containing 0.5% […] (FBS) and 0.01% DMSO (control solvent) or […] all-trans retinoic acid (Sigma, St. Louis, Mo.). For further differentiation, the medium was replaced by N2 medium containing 0.5% FBS and one of the following: sterile water (control solvent), mouse 2.55 NGF (50 ng/ml, Boehringer Mannheim, Indianapolis, Ind.), rhBDNF (20 ng/ml, Alomone Labs, Jerusalem, Israel), rhNT-3 (40 ng/ml, Genentech, South San Francisco, Calif.). The medium was replaced every two days. For inhibition of the tyrosine kinase activity of the Trk receptors, K-252a (100 nM, Calbiochem, San Diego, Calif.) was added to the medium.
Reverse Transcription-PCR Analysis. Total RNA from stem cells was isolated using RNeasy Total RNA Kits (Qiagen, Chatsworth, Calif.) according to manufacturer's instructions. Fifty nanograms of total RNA was reverse transcribed using avian myeloblastosis virus reverse transcriptase (Promega, Madison, Wis.) with random hexamers ([…]) as primers in a […] reaction mixture. For PCR amplification, two sets of specific oligonucleotide pairs ([…]) were used: one directed to the transcript of interest, and one for a constitutively expressed transcript, either ribosomal protein L27 or L27a. Reactions were performed in a […] reaction mixture containing 10 mM Tris-Cl (pH 8.4), 50 mm KCl, 1.5 mM MgC12, […] each of the four dNTPs, 2 mCi of [a-32P]dCTP and 5 units of Taq polymerase (Promega) using a thermal cycler (Perkin-Elmer, Foster City, Calif.) with a regimen of 1 min at 94° C., 2 min at 60° C. (55° C. for trk receptors) and 2 min at 72° C. for 23 cycles Fifty microliters of each reaction was analyzed by electrophoresis on 8% polyacrylamide gels followed by autoradiography. […] Under these conditions, the L27 amplification product was directly proportional to the amount of input RNA, up to 50 ng total RNA. Oligonucleotide primers used are as follows: […]
RA treatment also results in neurotrophin-dependent induction of c-fos. Transient and rapid induction of immediate early genes such as c-fos is a well-characterized response to extracellular stimuli in neural cells. c-fos is induced after neurotrophin treatment in cultured […] hippocampal or cortical cells and the signaling cascade following c-fos induction is considered to be integral to subsequent steps in differentiation. To determine whether upregulation of mRNAs for trk receptors and p75NGFR observed in the stem cell cultures results in the acquisition of functional Trk-dependent stimulation of c-fos, mRNA was examined by RT-PCR analysis after stimulating RA-treated cells with neurotrophins. […]

[2] = system: clonal stem cells (AP14); assay: BrdU labeling of ACSC cultures during RA treatment; format: cell-based, rat
Experimental: as §1
BrdU Labeling and Visualization. Cells plated as described above were treated with BrdU ([…], Sigma) for 24 hrs before fixation. Then the cells were fixed with tris-buffered 4% paraformaldehyde for 15 min. incubated with tris-buffered 0.6% H2O2 for 30 min, and treated with 50% formamide/2×SSC for 2 hrs followed by a 30-min incubation in 2N HCl, and a neutralization in 0.1M borate (Na2B4O7) for 10 min. Cells were incubated with a-BrdU monoclonal antibody (1:400, Boehringer Mannheim) overnight at 4° C., and incubated with biotinylated horse anti-mouse secondary antibody (1:80, Jackson Immunoresearch, West Grove, Pa.) for 1 hr. Reactive cells were visualized with the avidin/biotin-peroxidase system (Vectastain Elite, Vector Laboratories, Burlingame, Calif.) and diaminobenzidine.
Upregulation of p21 was accompanied by a decrease in the number of dividing cells as evidenced by BrdU incorporation. Cultures were treated with RA for 2, 4, or 6 days and then pulsed with […] bromodeoxyuridine (BrdU) for 24 hrs on the last day of RA treatment. Cells were then fixed and processed for BrdU immunocytochemistry. In the presence of RA, there was a dramatic change in cell morphology, and a gradual decrease in the total number and proportion of BrdU-positive cells. Within 6 days of RA treatment, most of the phase-bright cells extended elaborate processes and only 29% of the cells were BrdU-positive, whereas in the serum-alone control treatment most of the cells continued to proliferate and retained rudimentary process morphology. In proliferative FGF-2-stimulated controls, more than 95% of the cells were labeled every 24 hrs.
Although proliferation decreased in response to RA, it is possible that the few remaining proliferating cells were contributing to the increase in neurons observed following RA treatment. To determine if RA induced a selective expansion of neuronal precursors, parallel cultures were treated with RA for 6 days followed by an additional 6 days in 0.5% serum alone. One set of cultures was fixed on days 2, 4, 6, 8, 10, and 12 and stained with 4,6-diamidino-2-phenylindole (DAPI) and the total number of nuclei was counted. Additional cultures were pulsed with BrdU for 72 hrs on days 0-3, 3-6, 6-9 or 9-12. The cultures were then fixed on day 12 and evaluated for the proportion of Map2ab-IR cells that had incorporated BrdU. […]

Compound: CC1=C(/C=C/C(C)=C/C=C/C(C)=C/C(=O)O)C(C)(C)CCC1 [RA, all-trans retinoic acid]
- baseline expression of c-fos mRNA [1]: increased
- Map2ab-IR neurons that divided (BrdU) ([2]; after 6 days of RA treatment): < 0.5%
- Map2ab-IR cells that divided (BrdU) ([2]; days 3-6 of RA treatment): Less than 5%
- neurons labeled with BrdU ([2]; first 24 hours upon application of RA): 19 +/− 3%
- neurons labeled with BrdU ([2]; second day following RA treatment): 3 +/− 1%
- Map2ab-IR cells that divided (BrdU) ([2]; three days immediately following start of RA treatment, 72 hr pulse): Less than one third
- BrdU-positive cells ([2]; within 6 days of RA treatment, 24 hr BrdU pulse): 29%

Compound: FGF-2: basic fibroblast growth factor, human recombinant, prepared in E. coli
- cells labeled every 24 hrs (BrdU) ([2]; proliferative FGF-2-stimulated controls): more than 95%
